This is an account of results in patent US20110190126A1, “WEED CONTROL METHOD AND HERBICIDAL COMPOSITION” (SYNGENTA CROP PROTECTION, INC., priority 2008, published 2011).

For this series, the system named is sugarcane. As to the kind of experiment: Field trials in 1.5 year plant cane: phytotoxicity (% damage) to sugarcane. The settings on record: 200 g/ha. The class given is in vivo. The procedure: Five field trials are carried out in 1.5 year plant cane to examine the effect on sugarcane of combinations of compound of Formula I with various PS-II inhibiting herbicides. Plot sizes are 20 m^2 and results shown are the average of 3 replicate treatments.

`COCCOCc1nc(C(F)(F)F)ccc1C(=O)C1=C(O)C2CCC(C2)C1=O` (stereo not shown) [Formula I]: the “% Damage (Average of three trials).” value is reported as 8%.
